Assay results from article PMC8415707 (Frontiers in Pharmacology, 2021).
No end group written: not given here.

Legend:
[1] = test system: Propionibacterium acnes ATCC 6919; experiment: microbe, parasite or virus in culture; assay type: cell-based
Procedure: (§1) The antimicrobial activity of FM-CATH was measured using two-fold dilution method as reported previously by us ([Ye et al., 2020]). Microorganisms bought from Guangdong Institute of Microbiology were cultured in Muller-Hinton (MH) broth at 37°C to exponential phase and subsequently diluted with fresh MH broth to reach 10^6 CFU/ml of density. An equal volume of microbial inoculums in 96-well plates was incubated with different concentrations of FM-CATH at 37°C for 14 h. The absorbance at 600 nm was measured by a microplate spectrophotometer (Infinite M1000 Pro, Tecan Company, Switzerland) to calculate the minimal inhibitory concentration (MIC) values. […] Ampicillin and polymyxin B were used as positive controls.

[2] = test system: Bacillus subtilis CMCC 63501; experiment: microbe, parasite or virus in culture; assay type: cell-based
Procedure: as §1

[3] = test system: Candida albicans ATCC 10231; experiment: microbe, parasite or virus in culture; assay type: cell-based
Procedure: as §1

[4] = test system: Pseudomonas aeruginosa ATCC 27853; experiment: microbe, parasite or virus in culture; assay type: cell-based
Procedure: as §1

HepG2 = experiment: Cytotoxicity by MTT; assay type: cell-based; conditions: HepG2, 24 h, 2.5-40 μM tested, n = 3; read-out: IC50 (proliferation, MTT)
Procedure: (§2) Three tumor cell lines (A549, HepG2, and MDA-MB-231) and two normal mammalian cell lines (MH-S and MDCK) were seeded in 96-well plates at a density of 5,000 cells per well. […] The supernatant was removed and DMSO was added before the absorbance at 490 nm was measured.

[5] = test system: Escherichia coli ATCC 25922; assay type: cell-based; conditions: ATCC 25922, 14 h
Procedure: The antimicrobial activity of FM-CATH was measured using two-fold dilution method as reported previously by us ([Ye et al., 2020]). Microorganisms bought from Guangdong Institute of Microbiology were cultured in Muller-Hinton (MH) broth at 37°C to exponential phase and subsequently diluted with fresh MH broth to reach 10^6 CFU/ml of density. An equal volume of microbial inoculums in 96-well plates was incubated with different concentrations of FM-CATH at 37°C for 14 h. The absorbance at 600 nm was measured by a microplate spectrophotometer (Infinite M1000 Pro, Tecan Company, Switzerland) to calculate the minimal inhibitory concentration (MIC) values.

mouse erythrocytes = conditions: 40 μM, 2% mouse erythrocyte suspension in TBS, room temperature, 2 h, absorbance 540 nm
Procedure: Hemolytic assay was carried out with fresh blood from mouse heart as reported in our previous article with minor modification ([Chai et al., 2021]). […] 1% Triton X-100 and PBS were applied as the positive and negative control, respectively. The absorbance of the supernatant at 540 nm was measured with a microplate spectrophotometer. The hemolysis rate was calculated using the following formula: percentage hemolysis = (ODsample—ODPBS)/(ODTriton—ODPBS) × 100%.

MDCK = experiment: Cytotoxicity by MTT; assay type: cell-based; conditions: 24 h, 2.5-40 μM tested, n = 3, read-out: IC50 (proliferation, MTT)
Procedure: as §2

A549 = experiment: Cytotoxicity by MTT; assay type: cell-based; conditions: A549, 24 h, 2.5-40 μM tested, n = 3; read-out: IC50 (proliferation, MTT)
Procedure: as §2

MDA-MB-231 = conditions: MDA-MB-231, 24 h, 2.5-40 μM
Procedure: as §2

MH-S = conditions: 24 h, 2.5-40 μM
Procedure: as §2

[6] = test system: Staphylococcus aureus ATCC 25923; experiment: Antimicrobial assay (MIC, two-fold dilution); assay type: cell-based; conditions: MH broth, 10^6 CFU/ml, 37°C, 14 h, absorbance 600 nm
Procedure: as §1

[7] = Isothermal titration calorimetry, binding to LPS; design: species or system Escherichia coli O55:B5; conditions: ITC, 1 mM peptide titrated into 50 μM LPS, 50 mM PBS pH 7.2, 25°C, single-site model
Procedure: ITC assay was carried out to investigate the thermodynamics of interactions between peptides and LPS or LTA using MicroCal PEAQ-ITC (Malvern; United Kingdom). 50 mM of PBS (pH 7.2) was used to prepare stock solutions of peptide, LPS, and LTA. […] In LTA binding experiment, 100 μM LTA in the syringe was titrated into 280 μL of 50 μM FM-CATH in the cell with the condition described above. Instrument was operated in high feedback mode. After the heats derived from dilution were subtracted, the equilibrium disassociation constant (K D) and the enthalpy change (ΔH) were analyzed by fitting to a single-site binding model using the MicroCal Origin software. The Gibb’s free energy change (ΔG) and entropy change (ΔS) were obtained from the basic thermodynamic equations, respectively.

[8] = two-fold dilution, MH broth, 10^6 CFU/ml, 37°C, 14 h, absorbance 600 nm

In the case of `CC1(C)S[C@@H]2[C@H](NC(=O)[C@H](N)c3ccccc3)C(=O)N2[C@H]1C(=O)O` [Ampicillin], the MIC ([1]; Cutibacterium acnes, ATCC6919, 14 h) is reported as greater than 100 µM, the MIC ([2]; Bacillus subtilis, CMCC63501, 14 h) is reported as greater than 100 µM and the MIC ([3]; Candida albicans, ATCC10231, 14 h) is reported as greater than 100 µM. It also gave an MIC ([4]; Pseudomonas aeruginosa, ATCC27853, 14 h) greater than 100 µM.

LKTKALNKLKQKLQAVGNLIGSVIKG [FM-CATH] gave an IC50 (HepG2) of 33.4 µM, an MIC ([1]; ATCC 6919, 14 h) of 6.25 µM and an MIC ([2]; CMCC 63501, 14 h) of 12.5 µM. The MIC ([3]; ATCC 10231, 14 h) was 6.25 µM, the MIC ([4]; ATCC 27853, 14 h) was 50 µM and the MIC [5] was 6.25 µM. The hemolytic activity (mouse erythrocytes) was “almost no hemolytic activity”, the IC50 (MDCK) was 337 µM and the IC50 (A549) was 11.7 µM. For the same compound, the “cytotoxicity (MTT)” value (MDA-MB-231) was “very low cytotoxicity” and the “cytotoxicity (MTT)” value (MH-S) was “very low cytotoxicity”.

In the case of Polymyxin B, the MIC [1, 8] is reported as 6.25 µM, the MIC [2, 8] is reported as 25 µM and the MIC [3, 8] is reported as 25 µM. The MIC [4, 8] was 50 µM, the MIC [6] was greater than 100 µM and the Kd [7] was 414 nM. The “∆H” value [7] was 24.7 ± 0.651 kJ/mol.
